Consider 1 compound from publication PMC8393474, “The Interaction of Hemin, a Porphyrin Derivative, with the Purified Rat Brain 2-Oxoglutarate Carrier” (Biomolecules, 2021).

The target in this test is T1, 2-oxoglutarate carrier (OGC) (Rattus norvegicus, UniProt P97700).
T1 construct: gene Slc25a11; native carrier purified from rat brain mitochondria, reconstituted into proteoliposomes
T1 sequence (P97700 2-314): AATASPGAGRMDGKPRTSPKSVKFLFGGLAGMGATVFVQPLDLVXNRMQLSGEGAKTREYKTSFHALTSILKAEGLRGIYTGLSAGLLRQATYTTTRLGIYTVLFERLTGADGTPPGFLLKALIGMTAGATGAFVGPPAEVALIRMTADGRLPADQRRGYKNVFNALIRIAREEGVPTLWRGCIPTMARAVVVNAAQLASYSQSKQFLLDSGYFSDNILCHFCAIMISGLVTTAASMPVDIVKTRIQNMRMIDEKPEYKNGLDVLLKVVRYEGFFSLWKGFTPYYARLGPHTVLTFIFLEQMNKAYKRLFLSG
Nature of the test: inhibition of […] 2-oxoglutarate or […] malate uptake in proteoliposomes reconstituted with purified OGC; Lineweaver-Burk and Dixon plots. It counts as biochemical.

One may read the IC50 as the concentration at which inhibition is half-maximal.

As for `C=CC1=C(C)C2=Cc3c(C=C)c(C)c4[n]3[Fe]([Cl])[n]3c(c(C)c(CCC(=O)O)c3=CC3=NC(=C4)C(C)=C3CCC(=O)O)=CC1=N2` [hemin], the half-inhibitory concentration (IC50) was found to be 1580 ± 220 nM.
